Source: patent US20240358692A1, “TREATMENT OF SCLERODERMA” (Aisa Pharma, Inc., priority 2023, published 2024)

System: participants with SSc-RP
Experiment: SHAQ - Visual Analog Scale - Overall Disease Severity
Assay type: in vivo, human
Conditions: for % change overall SSc Disease Severity: SHAQ, mITT Part A
Excerpt: The standard, validated, patient reported outcome measures tool for SSc patients, the Scleroderma Health Assessment Questionnaire (SHAQ), will be used to assess the participant qualify of life. Details are attached in the Appendix. The participant quality of life will be scored, and a disability index calculated for each questionnaire completed by the patient at Screening and each in-clinic visit. The absolute change in participant quality of life from baseline to the end of each dosing period will be calculated similar to frequency data as before.
The standard, validated, patient reported outcome measures tool for SSc patients, the SHAQ, was collected at the time points specified in the study schedules (FIG. 2 and FIGS. 4A and 4B) to assess the participant's quality of life. The SHAQ included a Raynaud's VAS that will also be reported separately.

[1] = Any Cilnidipine (N = 17), Day 12, PP Population, Part A
[2] = Pooled Cilnidipine 10 mg and Cilnidipine 10 mg + Tadalafil 5 mg, PP, Part A
[3] = Pooled Cilnidipine 20 mg and Cilnidipine 20 mg + Tadalafil 5 mg, PP, Part A
[4] = Pooled Cilnidipine (N = 7), Day 12, Modified ITT Population - Part A
[5] = Pooled Cilnidipine (N = 8), Day 12, PP Population, Part A
[6] = Sensitivity Analysis (diagnosis of SSc), Modified ITT, Part A, Day 12, arms Cilnidipine 10 mg, Tadalafil 5 mg, Cilnidipine 10 mg + Tadalafil 5 mg
[7] = cilnidipine 10 mg (combination: + tadalafil 5 mg)
[8] = cilnidipine 20 mg (combination: + tadalafil 5 mg)

COCCOC(=O)C1=C(C)NC(C)=C(C(=O)OC/C=C/c2ccccc2)C1c1cccc([N+](=O)[O-])c1 (stereo not drawn) [Cilnidipine]
SHAQ Visual Analogue Scale - Overall Disease Severity, In-Clinic Visit (Day 12), Median [1]: 1.400
SHAQ Visual Analogue Scale - Overall Disease Severity, Percent Change from Baseline, Mean (SD) [1]: −36.33 (43.497) %
SHAQ Visual Analogue Scale - Overall Disease Severity, Percent Change from Baseline, Median [1]: −42.89%
% change overall SSc Disease Severity (Cilnidipine 20 mg (n = 3)): −63% (i.e.,
SHAQ Overall Scleroderma Disease Severity, mean % change (Cilnidipine 20 mg (n = 3), minus = improvement, Table A*): −63%
SHAQ VAS Overall Disease Severity, Change from Baseline, Max [2]: 1.90
SHAQ VAS Overall Disease Severity, Change from Baseline, Mean (SD) [2]: −0.606 (1.1663)
SHAQ VAS Overall Disease Severity, Change from Baseline, Min [2]: −1.90
SHAQ VAS Overall Disease Severity, Change from Baseline, Q1 [2]: −1.500
SHAQ VAS Overall Disease Severity, Change from Baseline, Q3 [2]: −0.300
SHAQ VAS Overall Disease Severity, Day 12, Max [2]: 6.00
SHAQ VAS Overall Disease Severity, Day 12, Min [2]: 0.00
SHAQ VAS Overall Disease Severity, Day 12, Q1 [2]: 0.800
SHAQ VAS Overall Disease Severity, Day 12, Q3 [2]: 3.800
SHAQ VAS Overall Disease Severity, Percent Change from Baseline, Max [2]: 100.0
SHAQ VAS Overall Disease Severity, Percent Change from Baseline, Mean (SD) [2]: −24.68 (57.343)
SHAQ VAS Overall Disease Severity, Percent Change from Baseline, Min [2]: −100.0
SHAQ VAS Overall Disease Severity, Percent Change from Baseline, Q1 [2]: −51.01
SHAQ VAS Overall Disease Severity, Percent Change from Baseline, Q3 [2]: −16.76
SHAQ Visual Analogue Scale - Overall Disease Severity, Change from Baseline, Median (Pooled Cilnidipine 20 mg and Cilnidipine 20 mg + Tadalafil 5 mg (N = 7), Day 12, Modified ITT Population - Part A): −1.500
SHAQ Visual Analogue Scale - Overall Disease Severity, In-Clinic Visit (Day 12), Median (Pooled Cilnidipine 20 mg and Cilnidipine 20 mg + Tadalafil 5 mg (N = 7), Modified ITT Population - Part A): 1.200
SHAQ VAS Overall Disease Severity, Change from Baseline, Max [3]: −0.40
SHAQ VAS Overall Disease Severity, Change from Baseline, Min [3]: −3.10
SHAQ VAS Overall Disease Severity, Change from Baseline, Q1 [3]: −1.750
SHAQ VAS Overall Disease Severity, Change from Baseline, Q3 [3]: −0.650
SHAQ VAS Overall Disease Severity, Day 12, Max [3]: 7.30
SHAQ VAS Overall Disease Severity, Day 12, Median [3]: 1.300
SHAQ VAS Overall Disease Severity, Day 12, Min [3]: 0.50
SHAQ VAS Overall Disease Severity, Day 12, Q1 [3]: 0.800
SHAQ VAS Overall Disease Severity, Day 12, Q3 [3]: 1.750
SHAQ VAS Overall Disease Severity, Percent Change from Baseline, Max [3]: −9.9
SHAQ VAS Overall Disease Severity, Percent Change from Baseline, Min [3]: −76.2
SHAQ VAS Overall Disease Severity, Percent Change from Baseline, Q1 [3]: −64.44
SHAQ VAS Overall Disease Severity, Percent Change from Baseline, Q3 [3]: −36.22
SHAQ Visual Analogue Scale - Overall Disease Severity, Change from Baseline, Mean [4]: −1.214
SHAQ Visual Analogue Scale - Overall Disease Severity, Percent Change from Baseline, Mean [4]: −59.80%
SHAQ Visual Analogue Scale - Overall Disease Severity, Percent Change from Baseline, Median [4]: −55.86%
SHAQ Visual Analogue Scale - Overall Disease Severity, In-Clinic Visit (Day 12), Mean (Pooled Cilnidipine (N = 7), Modified ITT Population - Part A): 1.486
SHAQ Visual Analogue Scale - Overall Disease Severity, In-Clinic Visit (Day 12), Mean (SD) [5]: 1.475 (1.6430)
SHAQ Visual Analogue Scale - Overall Disease Severity, In-Clinic Visit (Day 12), Median [5]: 1.300
% change overall SSc Disease Severity (Pooled Cilnidipine (n = 7)): −60% (i.e.,
SHAQ VAS Overall Disease Severity, Change from Baseline, Max (Pooled Cilnidipine, PP, Part A): 0.20
SHAQ VAS Overall Disease Severity, Change from Baseline, Mean (SD) (Pooled Cilnidipine, PP, Part A): −1.450 (0.9928)
SHAQ VAS Overall Disease Severity, Change from Baseline, Median (Pooled Cilnidipine, PP, Part A): −1.550
SHAQ VAS Overall Disease Severity, Change from Baseline, Min (Pooled Cilnidipine, PP, Part A): −3.10
SHAQ VAS Overall Disease Severity, Change from Baseline, Q1 (Pooled Cilnidipine, PP, Part A): −1.850
SHAQ VAS Overall Disease Severity, Change from Baseline, Q3 (Pooled Cilnidipine, PP, Part A): −0.950
SHAQ VAS Overall Disease Severity, Day 12, Max (Pooled Cilnidipine, PP, Part A): 5.20
SHAQ VAS Overall Disease Severity, Day 12, Median (Pooled Cilnidipine, PP, Part A): 1.300
SHAQ VAS Overall Disease Severity, Day 12, Min (Pooled Cilnidipine, PP, Part A): 0.00
SHAQ VAS Overall Disease Severity, Day 12, Q1 (Pooled Cilnidipine, PP, Part A): 0.350
SHAQ VAS Overall Disease Severity, Day 12, Q3 (Pooled Cilnidipine, PP, Part A): 1.650
SHAQ VAS Overall Disease Severity, Percent Change from Baseline, Max (Pooled Cilnidipine, PP, Part A): −26.8
SHAQ VAS Overall Disease Severity, Percent Change from Baseline, Mean (SD) (Pooled Cilnidipine, PP, Part A): −61.10 (23.658)
SHAQ VAS Overall Disease Severity, Percent Change from Baseline, Median (Pooled Cilnidipine, PP, Part A): −60.00
SHAQ VAS Overall Disease Severity, Percent Change from Baseline, Min (Pooled Cilnidipine, PP, Part A): −100.0
SHAQ VAS Overall Disease Severity, Percent Change from Baseline, Q1 (Pooled Cilnidipine, PP, Part A): −76.19
SHAQ Visual Analogue Scale - Overall Disease Severity: Change from Baseline, Median [6]: −1.500
SHAQ Visual Analogue Scale - Overall Disease Severity: In-Clinic Visit (Day 12), Median [6]: 1.900
SHAQ Visual Analogue Scale - Overall Disease Severity: In-Clinic Visit (Day 12), Median (Sensitivity Analysis (diagnosis of SSc), Modified ITT, Part A, Day 12, arms Cilnidipine 20 mg, Cilnidipine 20 mg + Tadalafil 5 mg): 1.200
VAS Overall Severity Change from Baseline Max [7]: 0.20
VAS Overall Severity Change from Baseline Mean [7]: −0.900
VAS Overall Severity Change from Baseline Median [7]: −0.950
VAS Overall Severity Change from Baseline Min [7]: −1.90
VAS Overall Severity Change from Baseline Q1 [7]: −1.700
VAS Overall Severity Change from Baseline Q3 [7]: −0.100
VAS Overall Severity Day 12 Max [7]: 5.20
VAS Overall Severity Day 12 Min [7]: 0.00
VAS Overall Severity Day 12 Q1 [7]: 0.100
VAS Overall Severity Day 12 Q3 [7]: 3.550
VAS Overall Severity Percent Change from Baseline Max [7]: −26.8%
VAS Overall Severity Percent Change from Baseline Mean [7]: −56.96%
VAS Overall Severity Percent Change from Baseline Median [7]: −44.12%
VAS Overall Severity Percent Change from Baseline Min [7]: −100.0%
VAS Overall Severity Percent Change from Baseline Q1 [7]: −100.00%
VAS Overall Severity Percent Change from Baseline Q3 [7]: −26.76%
VAS Overall Severity Change from Baseline Max [8]: −1.50
VAS Overall Severity Change from Baseline Mean [8]: −1.633,
VAS Overall Severity Change from Baseline Median [8]: −1.600
VAS Overall Severity Change from Baseline Min [8]: −1.80
VAS Overall Severity Change from Baseline Q1 [8]: −1.800
VAS Overall Severity Change from Baseline Q3 [8]: −1.500
VAS Overall Severity Day 12 Max [8]: 1.40
VAS Overall Severity Day 12 Median [8]: 1.200
VAS Overall Severity Day 12 Min [8]: 0.50
VAS Overall Severity Day 12 Q1 [8]: 0.500
VAS Overall Severity Day 12 Q3 [8]: 1.400
VAS Overall Severity Percent Change from Baseline Max [8]: −51.7%
VAS Overall Severity Percent Change from Baseline Mean [8]: −62.64%
VAS Overall Severity Percent Change from Baseline Median [8]: −60.00%
VAS Overall Severity Percent Change from Baseline Min [8]: −76.2%
VAS Overall Severity Percent Change from Baseline Q1 [8]: −76.19%
VAS Overall Severity Percent Change from Baseline Q3 [8]: −51.72%
